The values that follow come from patent publication US20040043985A1, “6,6-Fused heteroaryl derivatives as matrix metalloproteinase inhibitors” (priority 2002, published 2004).

The experiment concerns the target T1, hMMP-13CD (Homo sapiens, UniProt P45452).
T1 construct: a human MMP-13 catalytic domain (“hMMP-13CD”)
Put plainly: Inhibition of MMP-13 catalytic domain (thiopeptolide substrate assay). The class given is biochemical. The source says:
The assays measure the amount by which a test compound reduces the hydrolysis of a thiopeptolide substrate catalyzed by a matrix metalloproteinase enzyme. Such assays are described in detail by Ye et al., in Biochemistry, 1992;31(45):11231-11235, which is incorporated herein by reference. One such assay is described below in Biological Method 1.
Thiopeptolide substrates show virtually no decomposition or hydrolysis at or below neutral pH in the absence of a matrix metalloproteinase enzyme. A typical thiopeptolide substrate commonly utilized for assays is Ac-Pro-Leu-Gly-thioester-Leu-Leu-Gly-OEt. A 100 μL assay mixture will contain 50 mM of N-2-hydroxyethylpiperazine-N′-2-ethanesulfonic acid buffer (“HEPES,” pH 7.0), 10 mM CaCl2, 100 μM thiopeptolide substrate, and 1 mM 5,5′-dithio-bis-(2-nitro-benzoic acid) (DTNB). The thiopeptolide substrate concentration may be varied, for example from 10 to 800 μM to obtain Km and Kcat values. The change in absorbance at 405 nm is monitored on a Thermo Max microplate reader (molecular Devices, Menlo Park, Calif.) at room temperature (22° C.). The calculation of the amount of hydrolysis of the thiopeptolide substrate is based on E412=13600 M^−1 cm^−1 for the DTNB-derived product 3-carboxy-4-nitrothiophenoxide. […]

Broadly, the IC50 is the point on the concentration scale where inhibition reaches its midpoint. Low readings indicate greater potency in that assay, high ones weaker potency in that assay. Compound `O=C(O)c1ccc(Cn2ccc3ccc(C#CCn4ccnn4)cc3c2=O)cc1` [4-[1-oxo-7-(3-[1,2,3]triazol-1-ylprop-1-ynyl)-1H-isoquinolin-2-ylmethyl]benzoic acid] came in with an IC50 of more than 50 µM.
